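Assay format: 96-well plates, 48-hour exposure. Abbreviation: GI50, concentration required for 50% inhibition of growth.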 The source made the active and inactive calls. No stated cut-off is given here; in the data, active = GI50 up to about 1.1 µM and inactive = higher.
Tests used:
Assay in all cases: NCI-60 cell line screen, 48 h
[1] = tested on: 786-0
[2] = tested on: ACHN
[3] = tested on: COLO 205
[4] = tested on: HCT-15
[5] = tested on: IGROV-1
[6] = tested on: Malme-3M
[7] = tested on: NCI-H522
[8] = tested on: OVCAR-4
[9] = tested on: SF-539
[10] = tested on: SK-MEL-28
[11] = tested on: SN12C
[12] = tested on: SR
[13] = tested on: U-251
[14] = tested on: UACC-62
[15] = tested on: UO-31
[16] = tested on: SK-MEL-5
[17] = tested on: OVCAR-5

| SMILES | GI50 [1] | GI50 [2] | GI50 [3] | GI50 [4] | GI50 [5] | GI50 [6] | GI50 [7] | GI50 [8] | GI50 [9] | GI50 [10] | GI50 [11] | GI50 [12] | GI50 [13] | GI50 [14] | GI50 [15] | GI50 [16] | GI50 [17] |
| --- | --- | --- | --- | --- | --- | --- | --- | --- | --- | --- | --- | --- | --- | --- | --- | --- | --- |
| CC12CC[C@H](O)C(C)(C)[C@H]1CC[C@](C)(O)C2COc1ccc2ccc(=O)oc2c1 (stereo partly drawn) | > 100 µM (inactive) | > 100 µM (inactive) | > 100 µM (inactive) | > 100 µM | > 100 µM (inactive) | 73.6 µM (inactive) | > 100 µM (inactive) | > 100 µM (inactive) | > 100 µM (inactive) | > 100 µM (inactive) | > 100 µM (inactive) | > 100 µM (inactive) | > 100 µM (inactive) | 64.4 µM (inactive) | > 100 µM (inactive) | – | – |
| CC(C)N(C(=O)C12C3C4C1C1C2C3C41C(O)C(C)(C)C)C(C)C (stereo not drawn) | > 50 µM (inactive) | > 50 µM (inactive) | > 50 µM (inactive) | > 50 µM | > 50 µM (inactive) | > 50 µM (inactive) | > 50 µM (inactive) | – | > 50 µM (inactive) | > 50 µM (inactive) | > 50 µM (inactive) | > 50 µM (inactive) | > 50 µM (inactive) | > 50 µM (inactive) | > 50 µM (inactive) | > 50 µM (inactive) | – |
| O=C(O)CCN(CCCN(CCC(=O)O)CCC(=O)O)CCC(=O)O | > 100 µM (inactive) | > 100 µM (inactive) | > 100 µM (inactive) | > 100 µM | > 100 µM (inactive) | > 100 µM (inactive) | > 100 µM (inactive) | > 100 µM (inactive) | > 100 µM (inactive) | > 100 µM (inactive) | > 100 µM (inactive) | – | > 100 µM (inactive) | > 100 µM (inactive) | – | > 100 µM (inactive) | > 100 µM (inactive) |
| O=C(Cn1cc(I)c(C(=O)NCC(O)CO)n1)NCC(O)CO (stereo not drawn) | > 100 µM (inactive) | > 100 µM (inactive) | > 100 µM (inactive) | > 100 µM | > 100 µM (inactive) | > 100 µM (inactive) | > 100 µM (inactive) | > 100 µM (inactive) | > 100 µM (inactive) | > 100 µM (inactive) | > 100 µM (inactive) | – | > 100 µM (inactive) | > 100 µM (inactive) | > 100 µM (inactive) | – | – |
| Cc1ccc2[nH]c(Sc3c([N+](=O)[O-])ncn3C)nc2c1 | 27.8 µM (inactive) | 33 µM (inactive) | 13.3 µM (inactive) | 13.8 µM | 22.1 µM (inactive) | 15.8 µM (inactive) | – | 18.1 µM (inactive) | 18.1 µM (inactive) | 37.4 µM (inactive) | 18 µM (inactive) | 12.3 µM (inactive) | 22.9 µM (inactive) | 19 µM (inactive) | 27.5 µM (inactive) | 17.1 µM (inactive) | 46.8 µM (inactive) |
| CC(=O)c1ccc(NC(=O)COC(=O)c2cccc3c(=O)c4ccccc4[nH]c23)cc1 | 37.8 µM (inactive) | 27.8 µM (inactive) | 33.6 µM (inactive) | – | 37.4 µM (inactive) | 42.5 µM (inactive) | 72.6 µM (inactive) | 6.79 µM (inactive) | 8.91 µM (inactive) | 40.6 µM (inactive) | 16.1 µM (inactive) | > 100 µM (inactive) | 15.5 µM (inactive) | 24.9 µM (inactive) | 96.2 µM (inactive) | 29.4 µM (inactive) | – |
| CC(C)(C)c1cc(C(=O)O)c(C(c2ccccc2)c2ccccc2C(=O)O)c(C(=O)O)c1 (stereo not drawn) | > 100 µM (inactive) | 20.7 µM (inactive) | 33.8 µM (inactive) | > 100 µM | – | > 100 µM (inactive) | 2.52 µM (inactive) | 19.9 µM (inactive) | > 100 µM (inactive) | > 100 µM (inactive) | 21.9 µM (inactive) | > 100 µM (inactive) | 11.3 µM (inactive) | > 100 µM (inactive) | > 100 µM (inactive) | – | > 100 µM (inactive) |
| CCCCCCCCCCCCCC(=O)CC(=O)c1c(O)cccc1O | 34.9 µM (inactive) | 28.2 µM (inactive) | 22.5 µM (inactive) | 25.2 µM | 48 µM (inactive) | 28.8 µM (inactive) | 22.7 µM (inactive) | 33.4 µM (inactive) | 49.5 µM (inactive) | > 100 µM (inactive) | 33.6 µM (inactive) | – | 35.6 µM (inactive) | 47.3 µM (inactive) | 32.7 µM (inactive) | > 100 µM (inactive) | 46.6 µM (inactive) |
| Cc1cc2c(c(C#N)c1C)NC(=O)C(CC(=O)O)C2=O (stereo not drawn) | > 100 µM (inactive) | > 100 µM (inactive) | > 100 µM (inactive) | > 100 µM | > 100 µM (inactive) | > 100 µM (inactive) | – | > 100 µM (inactive) | > 100 µM (inactive) | > 100 µM (inactive) | > 100 µM (inactive) | – | > 100 µM (inactive) | > 100 µM (inactive) | > 100 µM (inactive) | > 100 µM (inactive) | > 100 µM (inactive) |
| C=C1C(=O)c2cc3c(cc2C(c2cc(OC)c(OC)c(OC)c2)[C@@H]1C(=O)O)OCO3 (stereo partly drawn) | 37 µM (inactive) | > 100 µM (inactive) | 39.3 µM (inactive) | 38 µM | 82 µM (inactive) | 50.6 µM (inactive) | 28.3 µM (inactive) | – | 63.7 µM (inactive) | 69.7 µM (inactive) | 43.1 µM (inactive) | – | 49.9 µM (inactive) | 27 µM (inactive) | 58.6 µM (inactive) | 50.7 µM (inactive) | – |
| COC(=O)C(=O)C1(CCC(C)=O)c2ccccc2-c2c(C)ccc(C)c21 (stereo not drawn) | 64 µM (inactive) | 46.7 µM (inactive) | 34.7 µM (inactive) | 32.6 µM | 57.8 µM (inactive) | 40.4 µM (inactive) | 33.3 µM (inactive) | 68.9 µM (inactive) | – | > 100 µM (inactive) | 69.2 µM (inactive) | 19.2 µM (inactive) | 41.8 µM (inactive) | 7.53 µM (inactive) | 25.4 µM (inactive) | 25.5 µM (inactive) | > 100 µM (inactive) |
| O=C(/C=C\c1cccc2ccccc12)c1ccc(F)cc1 | 18.1 µM (inactive) | 17 µM (inactive) | 19 µM (inactive) | 15.1 µM | 15.3 µM (inactive) | 17.7 µM (inactive) | 20.5 µM (inactive) | 20.1 µM (inactive) | 21.5 µM (inactive) | 13.2 µM (inactive) | 17.3 µM (inactive) | – | 15.8 µM (inactive) | 13.9 µM (inactive) | 16.7 µM (inactive) | 17.8 µM (inactive) | 16.6 µM (inactive) |
| CN(C(=O)C12C3C4C1C1C4(C(=O)C45C6C7C4C4C5C6C74C)C3C12C)C(C)(C)C (stereo not drawn) | 67.9 µM (inactive) | 74.3 µM (inactive) | 35.4 µM (inactive) | 28.3 µM | > 100 µM (inactive) | > 100 µM (inactive) | 48.6 µM (inactive) | – | > 100 µM (inactive) | > 100 µM (inactive) | > 100 µM (inactive) | 29.2 µM (inactive) | 79.3 µM (inactive) | 48.3 µM (inactive) | 38.5 µM (inactive) | 31.6 µM (inactive) | 88.1 µM (inactive) |
